US12534429B2, “Heterodimers of glutamic acid” (Molecular Insight Pharmaceuticals, Inc., priority 2006, dated 2026)

Legend:
PSMA on LNCaP cells [1] = target: T1, PSMA on LNCaP cells (Homo sapiens, UniProt Q04609); test: In vitro cell binding: competition with I-131 DCIT for binding to PSMA on LNCaP cells; conditions: LnCap cells, dose curves; read-out: IC50 values versus I-131 DCIT
T1 construct: LNCaP human prostate cancer cells were obtained from American Type Culture Collection; host or cells: LNCaP human prostate cancer cells
Experimental: In vitro cold screening assays verses I-131 DCIT. LNCaP and PC3 human prostate cancer cells were obtained from American Type Culture Collection, Rockville, MD LNCaP cells were maintained in RPMI-1640 medium supplemented with 10% fetal bovine serum (FBS). PC3 cells were grown in F12K medium supplemented with 10% FBS. Binding of the radiolabeled compound and competition with cold derivatives to LNCaP and PC-3 cells was performed according to the methods of Tang et al. (Tang, H.; Brown, M.; Ye, Y.; Huang, G.; Zhang, Y.; Wang, Y.; Zhai, H.; Chen, X.; Shen, T. Y.; Tenniswood, M., Prostate targeting ligands based on N-acetylated alpha-linked acidic dipeptidase, Biochem. Biophys. Res. Commun. 2003, 307, 8-14) with appropriate modifications. Cells were plated in 12-well plates at approximately 4×10^5 cells/well and incubated for 48 hours in a humidified incubator at 37° C./5% carbon dioxide prior to addition of compound. Each unique SAAC-urea-Glu conjugate was prepared and diluted in serum-free cell culture medium containing 0.5% bovine serum albumin (BSA) in combination with 3 nM I-131 DCIT (known inhibitor). Total binding was determined by incubating I-131 DCIT without test compound. Plates were incubated at room temperature for 1 hour. Cells were removed from the plates by gently pipeting and transferred to eppendorff tubes. Samples were microcentrifuged for 15 seconds at 10K×g. The medium was aspirated and the pellet was washed twice by dispersal in fresh assay medium followed by microcentrifugation. Cell binding of I-131 DCIT was determined by counting the cell pellet in an automated gamma counter. […] The control compounds are depicted below.
The ability of non-radioactive analogs to compete with ^131I-DCIT for binding to PSMA was tested in the PSMA positive human prostate cancer cell line, LNCaP cells. LNCaP cells (300,000 cells/well) were incubated for 1 hour with 3 nM [^131I]-DCIT in the presence of 1-10,000 nM MIP-1072 in RPMI-1640 medium supplemented with 0.5% bovine serum albumin, then washed and counted in a gamma counter. All documents cited in this specification including patent applications are incorporated by reference in their entirety.

[2] = tested on: LNCaP (PSMA positive) tumors; test: Tissue biodistribution of I-131 MIP 1072 in xenograft tumored mice, LNCaP tumors; type: in vivo; conditions: I-131-labeled
Description: (§1) The lead compound, MIP 1072, was I-131-labeled for tissue distribution studies in mice with both LNCaP (PSMA positive) and PC3 (PSMA negative) tumors implanted. The compound was radiolabeled by the route shown below.
(§2) A graph depicting the mice distribution is shown below (FIG. 12).

PSMA on LNCaP cells [3] = target: T1, PSMA on LNCaP cells; test: Saturation binding analysis of radiolabeled MIP-1072 in LNCaP cells
Experimental: The affinity constant (Kd) of MIP-1072 was determined by saturation binding analysis (FIG. 18). LNCaP cells were incubated for 1 hour with 30-100,000 pM ^131I-MIP-1072 in HBS (50 mM Hepes, pH 7.5, 0.9% sodium chloride) at either 4° C. or 37° C. in the absence or presence of 10 μM unlabeled MIP-1072 (to determine non-specific binding). Cells were then washed and the amount of radioactivity was measured on a gamma counter. Specific binding was calculated as the difference between total binding and nonspecific binding. […] The Bmax, however, was greater at 37° C. than at 4° C.; […] fmol/10^6 cells, respectively, indicating internalization of MIP-1072. The results below are representative of two independent analyses.

LnCap cells = test: Rate of uptake and internalization (acid wash assay) of MIP-1072 in LNCaP cells; type: cell-based, human; conditions: 100 nM; for internalization in LNCaP cells: 4° C. and 37° C.
Experimental: In order to confirm the results of the Scatchard analysis of FIG. 7 indicating MIP-1072 internalization into LNCaP cells, the rate of uptake of MIP-1072 in LNCaP cells was monitored. Each well was dosed with 100 nM MIP-1072 (2 uCi/well) at 4° C. and 37° C. Binding to PSMA reached equilibrium after 15 min as evidenced by the plateau in the curve at 4° C. The cells incubated at 37° C. continued to internalize MIP-1072 after equilibrium had been reached.
The ability of MIP-1072 to internalize in LNCaP cells was confirmed by an acid wash assay (FIG. 19). LNCaP cells were incubated in HBS with 100 nM ^123I-MIP-1072 for 0-2 hours at 4 and 37° C. At the indicated time the media was removed and the cells were incubated in mild acid buffer (50 mM glycine, 150 mM NaCl, pH 3.0) at 4° C. for 5 minutes. After the brief incubation the cells were centrifuged at 20,000×g for 5 minutes. The supernatant and cell pellet were counted in a gamma counter. In order to confirm the results of the saturation binding analysis indicating MIP-1072 internalization into LNCaP cells, we monitored the rate of uptake of MIP-1072 in LNCaP cells. Each well was dosed with 100 nM MIP-1072 (2 uCi/well) at 4° C. and 37° C. Binding to PSMA reached equilibrium after 15 min as evidenced by the plateau in the curve at 4° C. The cells incubated at 37° C. continued to internalize MIP-1072 after equilibrium had been reached. […] (FIG. 19).

[4] = tested on: PC3 (PSMA negative) tumors; test: Tissue biodistribution of I-131 MIP 1072 in xenograft tumored mice, PC3 tumors; type: in vivo; conditions: I-131-labeled
Description: as §1, §2

[5] = Microsome assay (stability in rat liver microsomes); type: in vitro ADME; conditions: 37° C., 60 min incubation; MIP-1072 50 μM, phenacetin 100 μM
Experimental: Pooled male rat liver microsomes (1 mg/mL, BD Biosciences), NADPH regenerating system (1.3 mM NADP, 3.3 mM glucose 6-phosphate and 0.4 U/mL glucose 6-phosphate dehydrogenase, BD Biosciences) and test compound (50 μM MIP-1072, 50 μM DCT, and 100 μM phenacetin) were added to 0.1 M potassium phosphate buffer (pH 7.4) in order to monitor the catastrophic degradation of the test compounds. The mixture was incubated at 37° C. and at the indicated time (0, 15, 60 min) the reaction was stopped by the addition of an equal volume of ice cold methanol (500 μL). The resulting slurry was then centrifuged at 21,000×G for 10 min and the supernatant was collected and injected onto an Agilent LCMS model MSD SL using a 95:5 water:acetonitrile (with 0.1% formic acid) to 40:60 water:acetonitrile (with 0.1% formic acid) gradient and monitoring for the parent ion only in single ion mode. The results, shown in FIGS. 11A and 11B, are expressed as degradation of the parent ion with respect to the 0 min time point.
The stability of MIP-1072 was assessed using rat liver microsomes. MIP-1072 (50 μM) and Phenacetin (100 μM) were incubated with rat liver microsomes at 37° C. for the indicated time. Phenacetin was used as a control substance that is known to be metabolized. MIP-1072 was not degraded by the rat liver microsomes during the incubation period. […]

[6] = tested on: PSMA positive LNCaP xenografts; type: in vivo, male NCr Nude mice
Experimental: Tissue biodistribution of I^23I-MIP-1072 (2 μCi/mouse, >1,000 mCi/μmole) was assessed in selected tissues from LNCaP (PSMA positive) tumor bearing nude mice. Results are expressed as the percent of the injected dose per gram of the selected tissues (% ID/g).
(§3) FIG. 21 Uptake of ^23I-MIP-1072 in LNCaP and PC3 xenograft bearing mice.
(§4) A quantitative analysis of the tissue distribution of ^123I-MIP-1072 was performed in separate groups of male NCr Nude^−/− mice bearing PSMA positive LNCaP xenografts (approximately 100-200 mm^3) administered via the tail vein as a bolus injection (approximately 2 μCi/mouse) in a constant volume of 0.05 ml. The animals (n=5/time point) were euthanized by asphyxiation with carbon dioxide at 0.25, 1, 2, 4, 8, and 24 hours post injection. Tissues (blood, heart, lungs, liver, spleen, kidneys, adrenals, stomach, large and small intestines (with contents), testes, skeletal muscle, bone, brain, adipose, and tumor) were dissected, excised, weighed wet, transferred to plastic tubes and counted in an automated γ-counter (LKB Model 1282, Wallac Oy, Finland). […] MIP-1072, uptake and exposure was greatest in the kidney and LNCaP xenograft which express high levels of PSMA. Peak uptake in the kidney was 158±46% ID/g at 2 hours and the LNCaP xenograft was 17±6% ID/g at 1 hours (FIG. 20).

[7] = tested on: PC3 tumors which do not express PSMA; test: Tumor uptake of 123I-MIP-1072 in PC3 xenograft bearing mice; type: in vivo, male NCr Nude mice; conditions: 1 hour post injection
Experimental: as §3, §4

T1 sequence (Q04609 whole entry): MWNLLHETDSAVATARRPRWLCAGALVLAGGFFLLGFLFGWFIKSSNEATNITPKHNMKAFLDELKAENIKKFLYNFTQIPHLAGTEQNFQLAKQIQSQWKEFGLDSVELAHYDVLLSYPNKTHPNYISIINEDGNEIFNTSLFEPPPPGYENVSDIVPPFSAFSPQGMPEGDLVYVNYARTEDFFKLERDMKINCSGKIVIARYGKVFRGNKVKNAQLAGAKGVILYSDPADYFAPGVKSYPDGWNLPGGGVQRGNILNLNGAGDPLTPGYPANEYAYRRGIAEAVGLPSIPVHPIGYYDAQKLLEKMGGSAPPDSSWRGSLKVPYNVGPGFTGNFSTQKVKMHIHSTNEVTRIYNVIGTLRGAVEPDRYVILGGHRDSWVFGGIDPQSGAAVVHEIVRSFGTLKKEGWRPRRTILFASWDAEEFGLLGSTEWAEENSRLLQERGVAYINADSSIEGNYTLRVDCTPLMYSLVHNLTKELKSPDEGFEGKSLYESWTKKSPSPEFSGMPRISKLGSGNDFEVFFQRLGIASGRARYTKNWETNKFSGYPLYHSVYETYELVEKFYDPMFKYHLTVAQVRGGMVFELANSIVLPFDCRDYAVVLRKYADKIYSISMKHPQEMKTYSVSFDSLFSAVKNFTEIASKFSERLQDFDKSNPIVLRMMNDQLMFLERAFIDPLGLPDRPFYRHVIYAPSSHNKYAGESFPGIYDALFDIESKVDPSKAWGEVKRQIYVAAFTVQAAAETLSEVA

IC50 (PSMA on LNCaP cells [1]) [nM] | Bmax (PSMA on LNCaP cells [3]; 4° C.) | Kd (PSMA on LNCaP cells [3]; 4° C., nonlinear regression) [nM] | Bmax (PSMA on LNCaP cells [3]; 37° C.) | Kd (PSMA on LNCaP cells [3]; 37° C.) [nM] | degradation of the parent by rat liver microsomes [5] | SMILES | uptake in LNCaP (PSMA positive) tumors [2] | internalization in LNCaP cells (LnCap cells) | time at which binding to PSMA reached equilibrium (LnCap cells; 4° C., LNCaP cells) [min] | activity in PC3 (PSMA negative) tumors [4] | tumor and kidney uptake after pretreatment with PMPA ([6]; 50 mg/kg PMPA 5 minutes prior to injection, 1 hour post injection) | localization to PSMA expressing LNCaP tumors ([6]; 1 hour post injection) | peak uptake in the LNCaP xenograft ([6]; at 1 hours post injection, tail vein bolus) [% ID/g] | localization to PC3 tumors [7]
< 50 | 1,490 fmoles/10^6 cells | 4.8 | 4,400 fmol/10^6 cells | 8.1 | not degraded | O=C(O)CC[C@H](NC(=O)N[C@@H](CCCCNCc1ccc(I)cc1)C(=O)O)C(=O)O [MIP 1072, (S, S)-2-{3-[1-Carboxy-5-(4-iodo-benzylamino)-pentyl]-ureido}-pentanedioic] | significant uptake | internalized | 15 | very little activity |  |  |  | 
 |  |  |  |  |  | O=C(O)CC[C@H](NC(=O)N[C@@H](CCCCNCc1ccc([123I])cc1)C(=O)O)C(=O)O [123I-MIP-1072] |  | internalized at 37 °C but not at 4 °C |  |  | blocked | localization to PSMA expressing LNCaP tumors | 17±6 | not PC3 tumors
 |  |  |  |  | 22% | CCOc1ccc(NC(C)=O)cc1 [phenacetin, reference compound] |  |  |  |  |  |  |  | 
